Test results: patent US20170290820A1, “METHODS AND COMPOSITIONS FOR TREATING BETA-THALASSEMIA AND SICKLE CELL DISEASE” (Academia Sinica, priority 2013, published 2017)

Experiments:
[1] = test system: NF-E4; test: NF-E4 mRNA level by relative quantitative RT-PCR; format: cell-based, human; settings: FIG. 4A; at IC50, 3 days, relative to mock
Description: FIGS. 4A-4D are graphs showing the expression profiles of the γ globin gene and HbF-related regulators after compounds treatment in the primary human erthroid cells. […] Data are presented as the relative expression level in mean±SEM, N=8. […] Upper panel: For detection of the induction level of γ globin, fifty microgram of total cell lysate was analyzed by western blot analysis using antibody against γ globin, or β-actin. Lower panel: The signal intensity was quantified by an image-analyzing software. The intensity of γ globin expression levels of mock control was set as 1. Data are shown as the mean±SEM, N=5. […] Lower panel: The signal was quantified by an image-analyzing software. […] Total RNA was extracted, and the expression level of γ globin gene was analyzed by relative quantitative RT-PCR. […]
After 3 days of drug-treatment, the total RNA was extracted by RNA Spin mini kit (Ge-Healthcare) and reverse-transcription was performed by using superscript II (Invitrogen) followed the manufactors instruction. Quantitative PCR was performed on LightCycler with using STBR green master mix followed the manufactors instruction (Roche). The absolute quantitative RT-PCR was calculated by the standard curve with supplying a known copy number of plasmids. The relative quantitative RT-PCR was normalized to the expression levels of the β-actin and compared to the mock control. […]

[2] = test system: γ globin gene; test: γ globin gene induction by relative quantitative RT-PCR; format: cell-based, human; settings: for γ globin induction (IC50): Table 3, γ globin mRNA induction fold at the compound's IC50, 3 days
Description: (§1) After 3 days of drug-treatment, the total RNA was extracted by RNA Spin mini kit (Ge-Healthcare) and reverse-transcription was performed by using superscript II (Invitrogen) followed the manufactors instruction. Quantitative PCR was performed on LightCycler with using STBR green master mix followed the manufactors instruction (Roche). The absolute quantitative RT-PCR was calculated by the standard curve with supplying a known copy number of plasmids. The relative quantitative RT-PCR was normalized to the expression levels of the β-actin and compared to the mock control.
To search for new agents, which are capable of inducing the expression of γ globin, a series of naphthalimide derivatives with various substituent(s) on the naphthalene ring and the heterocyclic N-atom (A1-A14, B1-B4, C1-C5, D1, and E1-E3, FIG. 2) were synthesized. These derivatives were subjected to evaluating the γ globin induction abilities in differentiated peripheral blood mononuclear cells (PBMCs). The PBMCs isolated from the peripheral blood of donors were expanded and differentiated for a total of 14 days in a two-phase liquid culture. The resulted primary erythoid cells were then treated with different dosages of naphthalimide derivatives individually for another 3 days. The expression levels of the endogenous γ globin gene were estimated by relative quantitative RT-PCR and the proliferation rates of these cells were examined by AlamarBlue cell viability assay. […]; 2-4.5-folds induction of the γ globin gene expression in the compounds-treated cells (FIG. 3).

[3] = test system: δ globin; test: absolute quantitative RT-PCR, proportion of δ globin mRNA; format: cell-based; settings: primary human erythroid cells, at IC50, 3 days; mock 3.3%
Description: as §1
(§2) To evaluate the specificity of S51021, SS-2394, HU, and NaB in mediating globin genes activation, the amounts of individual P3-liked globin mRNAs were measured by absolute quantitative RT-PCR.
(§3) The primary human erythroid cells were treated with HU (145.9 μM), NaB (221.6 μM), S51021 (21.8 μM) or SS2394 (2.3 μM) for 3 days, and the expression levels of each globin mRNA were estimated by absolute quantitative RT-PCR analysis. The proportions of individual 3-like globin chains among the total 3-like globin mRNA are shown. Data are presented as the mean±SEM, N=3.

[4] = test system: primary human erythroid cells; test: AlamarBlue cell viability / proliferation assay; settings: Table 3; primary human erythroid cells, 3 days, proliferation reduced by 50%
[5] = test system: β globin; test: absolute quantitative RT-PCR, proportion of β globin mRNA; format: cell-based; settings: primary human erythroid cells, at IC50, 3 days; mock 88.8%
Description: as §1, §2, §3

[6] = test system: γ globin; test: absolute quantitative RT-PCR, proportion of γ globin mRNA; format: cell-based; settings: primary human erythroid cells, at IC50, 3 days; mock 7.9%
Description: as §1, §2, §3

| EC (μM) induction of HU IC50 (2.3 fold) ([2]; concentration inducing γ globin gene expression 2.3-fold, primary human erythroid cells) | SMILES | expression level of NF-E4 [1] | γ globin induction (IC50) [2] | δ globin proportion of total β-like globin mRNA [3] | IC50 [4] | β globin proportion of total β-like globin mRNA [5] | γ globin proportion of total β-like globin mRNA [6] | expression level of γ globin mRNA ([2]; FIG. 4A, at IC50, 3 days, relative to mock) |
| --- | --- | --- | --- | --- | --- | --- | --- | --- |
| 145.9 µM | NC(=O)NO [HU, hydroxyurea] | 0.6 folds | 2.3 fold | 4.5 ± 0.2% | 146 µM | 84.2 ± 1.3% | 11.2 ± 1.1% |  |
|  | CCCC(=O)[O-].[Na+] [NaB, sodium butyrate] | 0.6 folds | 1.3 fold | 1.8 ± 0.1% | 222 µM | 87.4 ± 1.0% | 10.8 ± 1.0% | not |
